For orientation: inhibition means the relative decrease from the control value, in per cent. For orientation: IC50 means the midpoint of a concentration-inhibition curve. A high value points to weaker potency. Broadly, the Ki is the equilibrium dissociation constant of an inhibitor or competing ligand from its target. Read a high Ki as lower affinity.

Consider 8 molecules from patent EP2236511A2, “LIGANDS OF ALPHA-ADRENOCEPTORS AND OF DOPAMINE, HISTAMINE, IMIDAZOLINE AND SEROTONIN RECEPTORS AND THE USE THEREOF” (priority 2007, dated 2009).

Where two headings read alike, the source gives them in different places.

The target of one experiment is T1, human D1 receptor (Homo sapiens, UniProt P21728).
T1 construct: expressed in transfected cells; host or cells: CHO
The experiment can be described thus: Radioligand binding to dopamine receptor D1 ([3H] SCH-23390, CHO membranes). Particulars: for inhibition at 10 µM: read-out: Dopamine receptors, % inhibition D1. The source says:
For this purpose sDNA of human D1 receptor is expressed in CHO cells, as it was described in [Dearry A, Gingrich JA, Falardeau P, Fremeau RT Jr, Bates MD and Caron MG. Molecular cloning and expression of the gene for a human D1 dopamine receptor. Nature. […] Nature.

The target in experiment [1] is T2, recombinant human 5-HT2A receptor (Homo sapiens, UniProt P28223).
T2 construct: expressed in transfected cells; host or cells: CHO-K1
The experiment can be described thus: Radioligand binding to serotonin receptor 5-HT2A ([3H] Ketanserin, CHO-K1 membranes). Particulars: for inhibition at 10 µM / 5-HT2A % inhibition: 10 µM ligand. From the text: 9-C. […] J Neurochem. […] Ketanserin is used as positive control.

Another experiment relates to mice. The experiment can be described thus: Mice Training in Morris Water Maze (Scopolamine). Type of experiment: in vivo. Particulars: unitary introduction of active ingredient; figures 10-13. How it is done: Example 17. Mice Training in Morris Water Maze. A round pool which was filled with water at 20-22°C was used. A round ceramic platform of 14cm height was placed in the pool. Animals's behavior was registered with automated computer videosystem in combination with software package of movement analysis Any-maze (Stoelting Co., US). Before testing mice suitable for training were selected. That was done by placing the platform 1cm above the water level and putting an animal on the platform for 20 seconds. Then the mouse was sunk into the water on the opposite side of the pool, allowed to find the platform and climbed it […] 60 seconds, where it was left for additional 20 seconds. After that the mouse was repeatedly immersed into water on the opposite side of the pool and allowed to look for platform. If it failed in finding the platform within 60 seconds the experimentator helped it to find the platform and climb it. If the mice could not find the platform itself in two consecutive attempts it was excluded from experiment. During the next two days the platform was placed 0.5 centimeter lower the water level. Every day the mice were given four attempts for finding the platform within 60 seconds. The time interval between the attempts was 20 seconds, during which the mice stayed on the platform. Every day before the first attempt mouse was placed on the platform for 20 seconds. The time needed for finding and climbing the platform was registered. The animals were sunk in water in 3 different places on the side of the pool opposite to platform. On each day of two-day testing 35-40 minutes before the beginning of training the mice were injected intraintestinally with physiological solution, Scopolamine or Scopolamine in combination with investigated compound. At least 8 animals were used in each group. On the third day the platform was removed and each animal was placed one time in the pool for a period of 60 seconds. The time each mouse spent in the area where the platform had been located during the previous days was registered. This time interval was regarded as a measure of effectiveness of training fulfilled during the previous two days. The testing was carried out during the day time in isolated laboratory using "white noise" at level of about 70 decibel above the human hearing threshold.

The test system of experiment [2] is male mice of BALB/c line. The experiment can be described thus: Passive Avoidance of mice in the Shuttle Chamber, memory disturbed by Scopolamine. Type of experiment: in vivo. As to conditions: Scopolamine 0.3 mg/kg, injected 30 minutes before training; figures 1-3. How it is done:
Example 14. […] A shuttle chamber (Ugo Basile, Italy) consisted of two sections was used. […] The sections were connected through a hole which could be overlapped by a vertical door. The floor was made of transverse metal bars on which DC current impulses could be fed. Experiments were carried out in aged male mice of BALB/c line weighing 20-24 grams.
Each group consisted of at least 8 animals. Animal was placed in light section, and latent period of the first entry into dark chamber was registered. Then the vertical door was closed and the animal was punished by 0.6 mA DC current for 3 seconds. After that it was taken back to its homecage. In 22-24 hours the same animal was placed again in light section of the shuttle chamber and latent period of its first entry into dark section, the total time of its stay in light section, and the number of entries into dark section, were registered. Each monitoring lasted for 5 minutes.
Testing was carried out during the day time in isolated laboratory using white noise at level of about 70 decibel above human hearing threshold.
Scopolamine causes the disturbance of training (memory loss) that results in […].

Experiment [3] relates to male mice of BALB/c line. The experiment can be described thus: Passive Avoidance of mice in the Shuttle Chamber, memory disturbed by MK-801. It counts as in vivo. As to conditions: MK-801 0.1 mg/kg, injected 30 minutes before training; fig. 4-6. How it is done:
Example 15. […] The testing was carried out as in example 14. […] Concurrently, physiological solution of MK-801 in combination with active ingredient 1.9 (1) 1/2NDSA was injected intraintestinally to independent group of mice before training.

In experiment [4] the test system is male mice of BALB/c line. The experiment can be described thus: Mice Behavior in the Elevated Plus Maze. Type of experiment: in vivo. Particulars: fig. 7-9; compared with Buspirone and Lorazepam. The source says: Example 16. […] The length of each arm of the maze was 30cm, width is 5cm, and height of the walls was 15cm. Two opposite arms were closed from both sides and end faces by transparent walls, the other two arms were lit and opened. A mouse was placed in the center of the maze and for the next five minutes the number of entries into opened and closed arms and the time spent in each type of arms was registered. […] The animals usually avoided opened arms (the preference index is between 0.2 and 0.3). Compounds with tranquilizing action increased this index up to 0.5-0.6 or even more and reduced the number of defecations without changing the overall motion activity of the mice (the total number of their entries to the arms).

T2 sequence (P28223 whole entry): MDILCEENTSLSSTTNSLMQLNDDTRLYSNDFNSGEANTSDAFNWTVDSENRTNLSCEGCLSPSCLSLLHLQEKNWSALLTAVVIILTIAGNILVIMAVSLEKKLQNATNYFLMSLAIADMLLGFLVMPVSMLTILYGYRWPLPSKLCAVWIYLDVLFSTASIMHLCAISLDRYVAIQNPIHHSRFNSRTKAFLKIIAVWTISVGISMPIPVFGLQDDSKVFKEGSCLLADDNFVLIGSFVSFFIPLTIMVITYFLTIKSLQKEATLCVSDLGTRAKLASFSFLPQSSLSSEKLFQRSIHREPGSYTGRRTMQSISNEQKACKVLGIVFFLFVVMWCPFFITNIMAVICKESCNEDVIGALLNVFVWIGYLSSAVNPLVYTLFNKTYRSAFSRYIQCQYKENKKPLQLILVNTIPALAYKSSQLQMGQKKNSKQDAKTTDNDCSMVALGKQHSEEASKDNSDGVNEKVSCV
T1 sequence (P21728 whole entry): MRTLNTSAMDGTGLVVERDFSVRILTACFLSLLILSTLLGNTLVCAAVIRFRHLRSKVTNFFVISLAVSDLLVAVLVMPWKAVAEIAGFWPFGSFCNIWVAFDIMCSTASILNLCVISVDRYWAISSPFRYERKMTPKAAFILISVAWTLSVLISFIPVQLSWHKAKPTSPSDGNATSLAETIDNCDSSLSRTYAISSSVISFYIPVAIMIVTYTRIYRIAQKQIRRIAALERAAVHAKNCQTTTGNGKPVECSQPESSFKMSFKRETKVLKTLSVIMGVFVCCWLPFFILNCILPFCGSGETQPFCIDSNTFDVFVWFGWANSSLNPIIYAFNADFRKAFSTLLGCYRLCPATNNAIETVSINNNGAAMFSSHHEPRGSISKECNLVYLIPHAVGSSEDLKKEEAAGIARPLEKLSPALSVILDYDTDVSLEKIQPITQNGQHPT

With `Cc1ccc2c(c1)[C@@H]1CN(C)CCC[C@@H]1N2CCc1ccc(C)nc1` (relative stereo) [1.6.1(2)·3HCl], the inhibition at 10 µM was 55% on human D1 receptor and -4% in experiment [1].
With `Cc1ccc2c(c1)c1c(n2CCc2ccccn2)CCN(C)C1` [1.1.2(2-3)·2HCl], the inhibition at 10 µM at human D1 receptor is 70%. In the experiment on mice, the “memory disorders caused by Scopolamine (time spent in area of the platform)” value was “decreasing memory disorders”.
In the case of `CN1CCc2c(c3ccccc3n2Cc2ccccc2)C1.Cl` [1.9(1)·HCl, 5-benzyl-2-methyl-2,3,4,5-tetrahydro-1H-pyrido[4,3-b]indole hydrochloride], the inhibition at 0.1 µM in experiment [1] (0.1µM ligand) was 68%. Moreover, in experiment [1], the inhibition at 10 µM stood at 96%. Further, in experiment [1] (5-HT2A), the nH is given as 0.765.
Regarding `Cc1ccc2c(c1)[C@@H]1CN(C)CCC[C@@H]1N2CCc1cccnc1` (relative stereo) [1.6.1(1)·3HCl], the inhibition at 10 µM at human D1 receptor was determined as 59%.
With `Cc1ccc2c(c1)c1c(n2CCc2ccccn2)CCCN(C)C1` [1.2.2(2-2)], in experiment [1], the 5-HT2A % inhibition was found to be 46%.
On to `CN1CCc2c(c3ccccc3n2Cc2ccccc2)C1` [1.9(1)·1/2NDSA, bis-(5-benzyl-2-methyl-2,3,4,5-tetrahydro-1H-pyrido[4,3-b]indole) naphthalene-1,5-disulfonate], for which, in the experiment with male mice of BALB/c line [2], the “enhancement of memory disturbed by Scopolamine” value is listed as “nootropic action”. Further, on human D1 receptor (Receptor D1), the IC50 was 3660 nM, affinity was put at a Ki of 1830 nM and the nH is given as 1.38. In addition, the inhibition at 10 µM on human D1 receptor turned out to be 77%. In addition, the “memory enhancement disturbed by MK-801” value in the experiment with male mice of BALB/c line [3] was “act as nootropic”. The “Anxiolytic (tranquilizing) action” value in the experiment on male mice of BALB/c line [4] is listed as “exhibits anxiolytic (tranquilizing) action”.
For the molecule `Cc1ccc2c(c1)c1c(n2CCc2ccc(C)nc2)CCN(C)C1` [1.1.2(4-2)·2HCl], the inhibition at 10 µM on human D1 receptor (10 µM ligand) amounted to 82%.
In the case of `Cc1ccc(CCn2c3c(c4cc(C)ccc42)CN(C)CC3)cc1` [1.1.2(1-3), 2,8-dimethyl-5-[2-(4-methylphenyl)-ethyl]-1,2,3,4-tetrahydro-1H-pyrido[4,3-b]indole], the 5-HT2A % inhibition in experiment [1] came to 98%.
